{"source": "patent US20240415808A1", "about": "“Dosage Regimen for Fexuprazan Injection Composition” (Daewoong Pharmaceutical Co., Ltd., priority 2021, published 2024)", "key": {"[1]": {"assay": "4-week repeated intravenous toxicity test, beagle dog", "type": "in vivo", "method": "The previously prepared fexuprazan hydrochloride was dissolved in a solution containing 30 wt. % of polyethylene glycol (Polyethylene Glycol 400) polymer in physiological saline, and the concentration was calculated based on fexuprazan weight so that it could be administered at a liquid volume of 5 mL/kg for rats and 2 mL/kg for beagle dogs to prepare each composition. Toxicity was evaluated by intravenously administering at doses of 0, 2.5, 5, and 10 mg/kg/day to rats and beagle dogs, respectively, once a day for 4 weeks."}, "[2]": {"system": "acidity (pH) in the gastrointestinal tract", "assay": "multiple intravenous administration clinical trial (7 days), acidity (pH) in the gastrointestinal tract", "type": "in vivo, human", "settings": "healthy adults; for Fraction time pH ≥ 4 over 24 hours post-dose (duration %) / Mean pH / Median pH: 7th day", "method": "Subsequent to Experimental Example 4, in order to confirm the change in PD value during multiple administration of the compound of the present invention, the clinical trial was designed to be randomized, double-blind, placebo-controlled in healthy adults between the ages of 19 and 50.\nA stabilizer (200 mg), a freeze-drying auxiliary agent (200 mg), and the previously prepared fexuprazan hydrochloride (40 mg based on fexuprazan weight) were dissolved in water for injection (4 mL), and the pH was adjusted to 4.0 by adding an appropriate amount of acid. The prepared solution was put into a vial and dried using a freeze-drying method to prepare a freeze-dried agent.\nThe freeze-dried composition prepared as above was used, but a total of 28 subject of […], 8, and 8 subjects each were enrolled for three dose groups (20 mg, 40 mg, and 80 mg) based on fexuprazan weight, and each group was randomly assigned to test or control groups in the order that they passed the screening criteria at a ratio of 3:1.\nDose groups 1 and 3 in Table 12 were administered once a day (every 24 hours) (FIG. 8), and dose group 2 was administered twice a day (every 12 hours) for 7 days (FIG. 9).\nThe acidity (pH) tests in the gastrointestinal tract were performed for 48 hours from the day before administration to 24 hours after the first administration. On the 7th day, it was administered for 24 hours after administration. The measured results are shown in Table 13 and FIGS. 10 to 14 below."}, "[3]": {"system": "indomethacin-induced bleeding gastric ulcer", "assay": "indomethacin-induced bleeding gastric ulcer model using male rats", "type": "in vivo, rat", "settings": "for Ulcer index (%): 30 min before indomethacin 80 mg/kg oral, autopsy 5 h; for Ulcer index (%) / Gastric erosion state / Gastric hemorrhage state: mean ± SD; for Gastric erosion state / Gastric hemorrhage state: histopathological examination", "method": "In order to evaluate the efficacy of fexuprazan against bleeding gastric ulcers, an indomethacin-induced bleeding gastric ulcer model using male rats was used.\nSpecifically, the previously prepared 1-(5-(2,4-difluorophenyl)-1-((3-fluorophenyl)sulfonyl)-4-methoxy-1H-pyrrol-3-yl)-N-methylmethanamine (hereinafter referred to as ‘fexuprazan’) hydrochloride was dissolved in a solution containing 30 wt. % of polyethylene glycol (Polyethylene Glycol 400) polymer in physiological saline. The concentration was adjusted so that 0, 0.1, 0.5, 1, 2 mg/kg based on fexuprazan weight could be administered to each test animal in a liquid volume of 1 mL/kg, and then each test animal was administered through the tail vein as a single dose. In addition, 1 mg/kg of esomeprazole magnesium trihydrate, which is a positive control, based on esomeprazole weight was administered as a single dose through the tail vein in test animals. After 30 minutes, 80 mg/kg of indomethacin was orally administered as a single dose to each test animal to induce gastric bleeding and ulceration. An autopsy was performed 5 hours after administration of indomethacin, and the stomach was removed. Then, the ulcer index (%) was measured using an image program (Leica Application Suite V4), and gastric hemorrhage and erosion state were evaluated through histopathological examination."}, "[4]": {"settings": "0.1 mg/kg single dose tail vein"}, "[5]": {"settings": "0.5 mg/kg single dose tail vein"}}, "note": "Several values for one entry are separate records, joined by “and”; a condition that tells them apart may be missing. Identical values can stand only once."}
{"smiles": "CNCc1cn(S(=O)(=O)c2cccc(F)c2)c(-c2ccc(F)cc2F)c1OC", "note": "[Fexuprazan, 1-(5-(2,4-difluorophenyl)-1-((3-fluorophenyl)sulfonyl)-4-methoxy-1H-pyrrol-3-yl)-N-methylmethanamine]", "values": [{"measurement": "Result: harmless dose", "setting": "[1]; Beagle dog, 4 weeks, intravenous, doses 0, 2.5, 5, 10", "result": "harmless dose 10 mg/kg"}, {"measurement": "toxic symptoms due to the test substance", "setting": "[1]; beagle dogs, 2.5, 5, 10 mg/kg/day intravenous, 4 weeks", "result": "no toxic symptoms due to the test substance were observed in all administration groups"}, {"measurement": "harmless dose", "setting": "[1]; beagle dogs, intravenous once a day for 4 weeks", "result": 10, "unit": "mg/kg/day"}, {"measurement": "Fraction time pH ≥ 4 over 24 hours post-dose (duration %)", "setting": "[2]; 20 mg IV q24h", "result": "55.68 (±14.85) % and 55.68 ± 14.85%"}, {"measurement": "Mean pH", "setting": "[2]; 20 mg IV q24h", "result": "4.28 ± 0.7"}, {"measurement": "Median pH", "setting": "[2]; 20 mg IV q24h", "result": "4.29 ± 1.32"}, {"measurement": "Fraction time pH ≥ 6 over 24 hours post-dose (duration %)", "setting": "[2]; 20 mg IV q24h, 7th day (n = 6)", "result": "25.29 ± 15.41", "unit": "%"}, {"measurement": "Fraction time pH ≥ 4 over 24 hours post-dose (duration %)", "setting": "[2]; 40 mg IV q12h", "result": "99.85 ± 0.31", "unit": "%"}, {"measurement": "Mean pH", "setting": "[2]; 40 mg IV q12h", "result": "6.34 ± 0.23"}, {"measurement": "Median pH", "setting": "[2]; 40 mg IV q12h", "result": "6.33 ± 0.22"}, {"measurement": "Fraction time pH ≥ 6 over 24 hours post-dose (duration %)", "setting": "[2]; 40 mg IV q12h, 7th day (n = 5)", "result": "74.77 (±13.39) % and 74.77 ± 13.39%"}, {"measurement": "Fraction time pH ≥ 4 over 24 hours post-dose (duration %)", "setting": "[2]; 80 mg IV q24h", "result": "94.78 ± 8.49", "unit": "%"}, {"measurement": "Mean pH", "setting": "[2]; 80 mg IV q24h", "result": "6.08 ± 0.5"}, {"measurement": "Median pH", "setting": "[2]; 80 mg IV q24h", "result": "6.28 ± 0.27"}, {"measurement": "Fraction time pH ≥ 6 over 24 hours post-dose (duration %)", "setting": "[2]; 80 mg IV q24h, 7th day (n = 6)", "result": "70.07% and 70.07 ± 18.09%"}, {"measurement": "Ulcer index (%)", "setting": "[3]; [4]", "result": "9.2 ± 2.3^ %"}, {"measurement": "Gastric erosion state", "setting": "[3]; [4]", "result": "2.9 ± 1.2"}, {"measurement": "Gastric hemorrhage state", "setting": "[3]; [4]", "result": "1.5 ± 1.6^"}, {"measurement": "Ulcer index (%)", "setting": "[3]; [5]", "result": "4.0 ± 1.8", "unit": "%"}, {"measurement": "Gastric erosion state", "setting": "[3]; [5]", "result": "1.3 ± 1.0"}, {"measurement": "Gastric hemorrhage state", "setting": "[3]; [5]", "result": "0.5 ± 0.8"}, {"measurement": "Ulcer index (%)", "setting": "[3]; 1 mg/kg single dose tail vein", "result": "4.2 ± 2.5", "unit": "%"}, {"measurement": "Gastric erosion state", "setting": "[3]; 1 mg/kg single dose tail vein", "result": "0.8 ± 0.7"}, {"measurement": "Gastric hemorrhage state", "setting": "[3]; 1 mg/kg single dose tail vein", "result": "0.3 ± 0.5"}, {"measurement": "Ulcer index (%)", "setting": "[3]; 2 mg/kg single dose tail vein", "result": "4.2 ± 1.5", "unit": "%"}, {"measurement": "Gastric erosion state", "setting": "[3]; 2 mg/kg single dose tail vein", "result": "0.3 ± 0.5"}, {"measurement": "Gastric hemorrhage state", "setting": "[3]; 2 mg/kg single dose tail vein", "result": "0.3 ± 0.5"}, {"measurement": "minimum effective dose", "setting": "[3]; single dose tail vein, ulcer index, gastric hemorrhage and erosion state vs excipient group", "result": 0.5, "unit": "mg/kg"}]}
